Measured values published in patent US9944602B2, “Piperidinone herbicides” (E. I. DU PONT DE NEMOURS AND COMPANY, priority 2014, dated 2018).

Assays:
Assay type in all cases: in vivo
[1] = system: barnyardgrass (Echinochloa crus-galli); experiment: Test A preemergence barnyardgrass; conditions: Echinochloa crus-galli, pre-emergence, 240 h, 0 to 100 scale, 0 no effect, 100 complete control, read-out: Barnyardgrass plant response rating; for pest or weed control at 125 g/ha: 125 g ai/ha; for pest or weed control at 500 g/ha: 500 g ai/ha
Procedure, shortened: (§1)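 Visual injury rating, 0–100 scale (0 = no effect, 100 = complete control), versus untreated controls ~10 d after treatment in greenhouse. Pre: directed soil spray onto seeded loam/sand. Post: foliar spray at 2–10 cm, 1–2 leaf stage. Solvent-surfactant formulation.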

kochia (Kochia scoparia) [2] = experiment: Test A preemergence kochia; conditions: Bassia scoparia, pre-emergence, 240 h, 0 to 100 scale, 0 no effect, 100 complete control, read-out: Kochia plant response rating; for pest or weed control at 125 g/ha: 125 g ai/ha; for pest or weed control at 500 g/ha: 500 g ai/ha
Procedure, shortened: as §1

[3] = system: ragweed (common ragweed, Ambrosia elatior); experiment: Test A preemergence ragweed; conditions: Ambrosia artemisiifolia, pre-emergence, 240 h, 0 to 100 scale, 0 no effect, 100 complete control, read-out: Ragweed plant response rating; for pest or weed control at 125 g/ha: 125 g ai/ha; for pest or weed control at 500 g/ha: 500 g ai/ha
Procedure, shortened: as §1

[4] = system: ryegrass, Italian (Italian ryegrass, Lolium multiflorum); experiment: Test A preemergence ryegrass, Italian; conditions: Lolium multiflorum, pre-emergence, 240 h, 0 to 100 scale, 0 no effect, 100 complete control, read-out: Ryegrass, Italian plant response rating; for pest or weed control at 125 g/ha: 125 g ai/ha; for pest or weed control at 500 g/ha: 500 g ai/ha
Procedure, shortened: as §1

[5] = system: foxtail, giant (giant foxtail, Setaria faberii); experiment: Test A preemergence foxtail, giant; conditions: Setaria faberi, pre-emergence, 240 h, 0 to 100 scale, 0 no effect, 100 complete control, read-out: Foxtail, Giant plant response rating; for pest or weed control at 125 g/ha: 125 g ai/ha; for pest or weed control at 500 g/ha: 500 g ai/ha
Procedure, shortened: as §1

[6] = system: pigweed (Amaranthus retroflexus); experiment: Test A preemergence pigweed; conditions: Amaranthus retroflexus, pre-emergence, 240 h, 0 to 100 scale, 0 no effect, 100 complete control, read-out: Pigweed plant response rating; for pest or weed control at 125 g/ha: 125 g ai/ha; for pest or weed control at 500 g/ha: 500 g ai/ha
Procedure, shortened: as §1

[7] = system: barnyardgrass (Echinochloa crus-galli); experiment: Test A postemergence barnyardgrass; conditions: Echinochloa crus-galli, post-emergence, 240 h, 0 to 100 scale, 0 is no effect, 100 is complete control, read-out: Plant response rating, Barnyardgrass; for pest or weed control at 125 g/ha: 125 g ai/ha; for pest or weed control at 500 g/ha: 500 g ai/ha
Procedure, shortened: as §1

kochia (Kochia scoparia) [8] = experiment: Test A postemergence kochia; conditions: Bassia scoparia, post-emergence, 240 h, 0 to 100 scale, 0 is no effect, 100 is complete control, read-out: Plant response rating, Kochia; for pest or weed control at 125 g/ha: 125 g ai/ha; for pest or weed control at 500 g/ha: 500 g ai/ha
Procedure, shortened: as §1

[9] = system: ragweed (common ragweed, Ambrosia elatior); experiment: Test A postemergence ragweed; conditions: Ambrosia artemisiifolia, post-emergence, 240 h, 0 to 100 scale, 0 is no effect, 100 is complete control, read-out: Plant response rating, Ragweed; for pest or weed control at 125 g/ha: 125 g ai/ha; for pest or weed control at 500 g/ha: 500 g ai/ha
Procedure, shortened: as §1

[10] = system: ryegrass, Italian (Italian ryegrass, Lolium multiflorum); experiment: Test A postemergence ryegrass, Italian; conditions: Lolium multiflorum, post-emergence, 240 h, 0 to 100 scale, 0 is no effect, 100 is complete control, read-out: Plant response rating, Ryegrass, Italian; for pest or weed control at 125 g/ha: 125 g ai/ha; for pest or weed control at 500 g/ha: 500 g ai/ha
Procedure, shortened: as §1

[11] = system: foxtail, giant (giant foxtail, Setaria faberii); experiment: Test A postemergence foxtail, giant; conditions: Setaria faberi, post-emergence, 240 h, 0 to 100 scale, 0 is no effect, 100 is complete control, read-out: Plant response rating, Foxtail, Giant; for pest or weed control at 125 g/ha: 125 g ai/ha; for pest or weed control at 500 g/ha: 500 g ai/ha
Procedure, shortened: as §1

[12] = system: pigweed (Amaranthus retroflexus); experiment: Test A postemergence pigweed; conditions: Amaranthus retroflexus, post-emergence, 240 h, 0 to 100 scale, 0 is no effect, 100 is complete control, read-out: Plant response rating, Pigweed; for pest or weed control at 125 g/ha: 125 g ai/ha; for pest or weed control at 500 g/ha: 500 g ai/ha
Procedure, shortened: as §1

[13] = system: wheat (Triticum aestivum); experiment: Test A postemergence wheat; conditions: Triticum aestivum, post-emergence, 240 h, 0 to 100 scale, 0 is no effect, 100 is complete control, read-out: Plant response rating, Wheat; for plant injury at 125 g/ha: 125 g ai/ha; for plant injury at 500 g/ha: 500 g ai/ha
Procedure, shortened: as §1

corn (Zea mays) = experiment: Test A postemergence corn; conditions: Zea mays, post-emergence, 240 h, 0 to 100 scale, 0 is no effect, 100 is complete control; for Corn plant response rating (crop injury, 0 = no effect, 100 = complete kill) at 125 g/ha: 125 g ai/ha; for Corn plant response rating (crop injury, 0 = no effect, 100 = complete kill) at 500 g/ha: 500 g ai/ha
Procedure, shortened: as §1

[14] = system: blackgrass (Alopecurus myosuroides); experiment: Test A postemergence blackgrass; conditions: Alopecurus myosuroides, post-emergence, 240 h, 0 to 100 scale, 0 is no effect, 100 is complete control, read-out: Plant response rating, Blackgrass; for pest or weed control at 125 g/ha: 125 g ai/ha; for pest or weed control at 500 g/ha: 500 g ai/ha
Procedure, shortened: as §1

[15] = system: galium (catchweed bedstraw, Galium aparine); experiment: Test A postemergence galium; conditions: Galium, post-emergence, 240 h, 0 to 100 scale, 0 is no effect, 100 is complete control, read-out: Plant response rating, Galium; for pest or weed control at 125 g/ha: 125 g ai/ha; for pest or weed control at 500 g/ha: 500 g ai/ha
Procedure, shortened: as §1

rice (Oryza sativa) = experiment: Test B flooded paddy test rice; conditions: Oryza sativa, Table B, Flood, 250 g ai/ha, scale 0 to 100, read-out: Plant response rating
Procedure, shortened: (§2)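 2-leaf plants; flood 3 cm over soil; cpd into paddy water; water depth kept; greenhouse 13–15 d; visual rating vs controls.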

[16] = system: sedge, umbrella (small-flower umbrella sedge, Cyperus difformis); experiment: Test B flooded paddy test sedge, umbrella; conditions: Cyperus difformis, Table B, Flood, 250 g ai/ha, scale 0 to 100, read-out: Plant response rating
Procedure, shortened: as §2

[17] = system: ducksalad (Heteranthera limosa); experiment: Test B flooded paddy test ducksalad; conditions: Heteranthera limosa, Table B, Flood, 250 g ai/ha, scale 0 to 100, read-out: Plant response rating
Procedure, shortened: as §2

[18] = system: barnyardgrass (Echinochloa crus-galli); experiment: Test B flooded paddy test barnyardgrass; conditions: Echinochloa crus-galli, Table B, Flood, 250 g ai/ha, scale 0 to 100, read-out: Plant response rating
Procedure, shortened: as §2

Row | Compound | pest or weed control at 125 g/ha [1] | pest or weed control at 500 g/ha [1] | pest or weed control at 125 g/ha (kochia (Kochia scoparia) [2]) | pest or weed control at 500 g/ha (kochia (Kochia scoparia) [2]) | pest or weed control at 125 g/ha [3] | pest or weed control at 500 g/ha [3] | pest or weed control at 125 g/ha [4] | pest or weed control at 500 g/ha [4] | pest or weed control at 125 g/ha [5] | pest or weed control at 500 g/ha [5] | pest or weed control at 125 g/ha [6] | pest or weed control at 500 g/ha [6] | pest or weed control at 125 g/ha [7] | pest or weed control at 500 g/ha [7] | pest or weed control at 125 g/ha (kochia (Kochia scoparia) [8]) | pest or weed control at 500 g/ha (kochia (Kochia scoparia) [8]) | pest or weed control at 125 g/ha [9] | pest or weed control at 500 g/ha [9] | pest or weed control at 125 g/ha [10] | pest or weed control at 500 g/ha [10] | further results
1 | O=C1NCC[C@H](c2cccc(C(F)(F)F)c2)[C@H]1C(=O)Nc1cccc(F)c1F [Compound 21, (3R,4S)—N-(2,3-difluorophenyl)-2-oxo-4-[3-(trifluoromethyl)phenyl]-3-piperidinecarboxamide] | 90% | 90% | 0% | 0% | 0% | 0% | 0% | 60% | 90% | 90% | 0% | 0% | 90% | 90% | 0% | 0% | 0% | 0% | 30% | 40% | pest or weed control at 125 g/ha [11]: 80%; pest or weed control at 500 g/ha [11]: 80%; pest or weed control at 125 g/ha [12]: 0%; pest or weed control at 500 g/ha [12]: 20%; plant injury at 125 g/ha [13]: 0%; plant injury at 500 g/ha [13]: 60%; Corn plant response rating (crop injury, 0 = no effect, 100 = complete kill) at 125 g/ha (corn (Zea mays)): 50%; Corn plant response rating (crop injury, 0 = no effect, 100 = complete kill) at 500 g/ha (corn (Zea mays)): 80%; pest or weed control at 125 g/ha [14]: 60%; pest or weed control at 500 g/ha [14]: 80%; pest or weed control at 125 g/ha [15]: 0%; pest or weed control at 500 g/ha [15]: 20%; plant injury at 250 g/ha (rice (Oryza sativa)): 10%; pest or weed control at 250 g/ha [16]: 0%; pest or weed control at 250 g/ha [17]: 100%; pest or weed control at 250 g/ha [18]: 75%
2 | O=C1NCC[C@H](c2ccc(C(F)(F)F)cc2)[C@H]1C(=O)Nc1cccc(F)c1F [Compound 22, (3R,4S)—N-(2,3-difluorophenyl)-2-oxo-4-[4-(trifluoromethyl)phenyl]-3-piperidinecarboxamide] | 90% | 90% | 70% | 80% | 60% | 80% | 20% | 60% | 90% | 90% | 20% | 50% | 80% | 90% | 40% | 60% | 50% | 50% | 40% | 70% | pest or weed control at 125 g/ha [11]: 90%; pest or weed control at 500 g/ha [11]: 90%; pest or weed control at 125 g/ha [12]: 40%; pest or weed control at 500 g/ha [12]: 50%; plant injury at 125 g/ha [13]: 0%; plant injury at 500 g/ha [13]: 60%; Corn plant response rating (crop injury, 0 = no effect, 100 = complete kill) at 125 g/ha (corn (Zea mays)): 0%; Corn plant response rating (crop injury, 0 = no effect, 100 = complete kill) at 500 g/ha (corn (Zea mays)): 60%; pest or weed control at 125 g/ha [14]: 50%; pest or weed control at 500 g/ha [14]: 60%; pest or weed control at 125 g/ha [15]: 50%; pest or weed control at 500 g/ha [15]: 70%; plant injury at 250 g/ha (rice (Oryza sativa)): 0%; pest or weed control at 250 g/ha [16]: 0%; pest or weed control at 250 g/ha [17]: 100%; pest or weed control at 250 g/ha [18]: 65%
